Assay results published in patent US20260234144A1 (TAY THERAPEUTICS LIMITED, priority 2023, published 2026).

Test system: R223X stop codon in the mutated luciferase gene, ADXC8 luciferase reporter cell line
Assay: cells
Type: cell-based
Settings: for Emax / EC (100% of 200 uM G418 response): 24 h; for Emax: read-out: Fold Over Control, maximum fold response relative to 200 μM G418; for Emax / EC (100% of 200 uM G418 response) / pC100%: ADXC8 cells, 24 hours; for EC (100% of 200 uM G418 response): read-out: pC100%, negative logarithm of the concentration giving the same response as 200 μM G418; for pC100%: negative logarithm of the concentration giving the same response as 200 μM G418

SMILES | Emax [%] | EC (100% of 200 uM G418 response) [µM] | pC100% | pC100% response (assayed at a concentration of 300 μM, C100% = concentration giving the same response as 200 μM G418)
CC(C)c1ccc2c(N)nc(NC3CCN(C)CC3)nc2n1 [Example 239, 7-isopropyl-N^2-(1-methylpiperidin-4-yl)pyrido[2,3-d]pyrimidine-2,4-diamine] | 100 to 3000 | 1 to 10 |  | 
Cc1cc(C)c2c(N)nc(NC3CCN(Cc4cccc(C#N)c4)CC3)nc2n1 [Example 499] | 100 to 3000 | 1 to 10 |  | 
COCc1ccccc1CN1CCC(Nc2nc(N)c3c(C)cc(C)nc3n2)CC1 [Example 455] | 100 to 3000 | 1 to 10 |  | 
CN1CCC(Nc2nc(N)c3ccc(-c4cccnc4)nc3n2)CC1 [Example 25, N^2-(1-methylpiperidin-4-yl)-7-(pyridin-3-yl)pyrido[2,3-d]pyrimidine-2,4-diamine] | 100 to 3000 | 10 to 100 |  | 
CNc1nc(N[C@]2(C)CCN(C)C2)nc2nc(C)cc(C)c12 [Example 388] | 0 to 100 | > 31.6 |  | 
CN1CCC(Nc2nc(N)c3cc(-c4cncn4C)cnc3n2)CC1 [Example 643] | 0 to 100 | > 100 |  | 
CNc1nc(N[C@H]2CNCC23CC3)nc2nc(C)cc(C)c12 [Example 403] |  | 1 to 10 |  | 
CCC(=O)O[C@H]1CN(C)C[C@@H]1Nc1nc(NC)c2c(C)c3c(nc2n1)CCC3 [Example 682] | 100 to 3000 | 0.1 to 1 |  | 
CNc1nc(NC2CCN(C)C2(C)C)nc2nc(C)cc(C)c12 (stereo not shown) [Example 409] | 100 to 3000 | 1 to 10 |  | 
Cc1cc(C)c2c(N)nc(NC3CCN(CC4CC4)CC3)nc2n1 [Example 145] | 100 to 3000 | 1 to 10 |  | 
CN1CCC(Nc2nc(N)c3ccc(-c4cccc(Cl)c4)nc3n2)CC1 [Example 91] |  | 1 to 10 |  | 
Cc1nc2nc(NC3CCN(Cc4ccc(C#N)cc4O)CC3)nc(N)c2c2c1CCC2 [Example 534] | 100 to 3000 | 0.1 to 1 |  | 
Cc1cc(C)c2c(NCc3ccccc3)nc(NC3CCN(C)CC3)nc2n1 [Example 268] | 100 to 3000 | 1 to 10 |  | 
CNC(=O)c1ccccc1-c1ccc2c(N)nc(NC3CCN(C)CC3)nc2n1 [Example 107] | 0 to 100 | > 100 |  | 
Cc1cc(C)c2c(N)nc(NC3C[C@H]4CCC[C@@H](C3)N4C)nc2n1 (stereo partly shown) [Example 211] | 100 to 3000 | 1 to 10 |  | 
CNc1nc(N[C@H]2CN(C)C[C@@H]2F)nc2nc(C)c3c(c12)CCC3 [Example 365] | 100 to 3000 | 0.1 to 1 |  | 
Cc1c2c(nc3nc(NC4CCN(Cc5cccc(C(=O)O)c5)CC4)nc(N)c13)CCC2 [Example 674] | 0 to 100 | > 31.6 |  | 
Cc1c2c(nc3nc(NC4CCN(Cc5ccn[nH]5)CC4)nc(N)c13)CCC2 [Example 662] | 100 to 3000 | 1 to 10 |  | 
CNc1nc(NC2CNCC2C(F)F)nc2nc(C)cc(C)c12 (single isomer, unassigned) [Example 429] |  |  | +++ (pC100% > 6.0 ≤ 7.0) | 
Cc1cc(C)c2c(N)nc(NC[C@H]3CNCCO3)nc2n1 [Example 161] | 100 to 3000 | 10 to 100 |  | 

SMILES | Emax [%] | EC (100% of 200 uM G418 response) [µM] | pC100% | pC100% response (assayed at a concentration of 300 μM, C100% = concentration giving the same response as 200 μM G418)
Cc1cc(C)c2c(N)nc(NC3CCN(Cc4cn[nH]c4)CC3)nc2n1 [Example 572] | 100 to 3000 | 1 to 10 |  | 
CNc1nc(N[C@@H]2CNC[C@@H]2O)nc2nc3c(c(C)c12)CCC3 [Example 657] | 100 to 3000 | 1 to 10 |  | 
CNc1nc(N[C@@H]2CCN(C)C2)nc2nc3c(c(C)c12)CCC3 [Example 336] | 100 to 3000 | 0.1 to 1 |  | 
CNc1nc(N[C@H]2CN(C)C[C@@H]2OC(=O)OC(C)(C)C)nc2nc3c(c(C)c12)CCC3 [Example 685, tert-butyl ((3S,4S)-1-methyl-4-((5-methyl-4-(methylamino)-7,8-dihydro-6H-cyclopenta[5,6]pyrido[2,3-d]pyrimidin-2-yl)amino)pyrrolidin-3-yl) carbonate] | 100 to 3000 | 0.1 to 1 |  | 
COCc1cnc2nc(NC3CCN(C)CC3)nc(N)c2c1 [Example 242, 6-(methoxymethyl)-N^2-(1-methylpiperidin-4-yl)pyrido[2,3-d]pyrimidine-2,4-diamine] | 0 to 100 | > 100 |  | 
Cc1cc(C)c2c(N)nc(NC3CCN(Cc4c(F)cc(C#N)cc4F)CC3)nc2n1 [Example 551] | 100 to 3000 | 10 to 100 |  | 
COc1ccc(CCN2CCC(Nc3nc(N)c4c(C)cc(C)nc4n3)CC2)cc1 [Example 201] | 100 to 3000 | 1 to 10 |  | 
Cc1cc(C)c2c(N)nc(NC3CCN(Cc4c(F)cccc4F)CC3)nc2n1 [Example 479] | 100 to 3000 | 1 to 10 |  | 
CNc1cc(N[C@@H]2CCN(C)C2)nc2nc3c(c(C)c12)CCC3 [Example 258, (R)—N^4,5-dimethyl-N^2-(1-methylpyrrolidin-3-yl)-7,8-dihydro-6H-cyclopenta[b][1,8]naphthyridine-2,4-diamine] | 100 to 3000 | 0.1 to 1 |  | 
Cc1cc(C)c2c(N)nc(N[C@@H]3CN4CCC3CC4)nc2n1 [Example 398] | 0 to 100 | > 31.6 |  | 
Cc1cc(C)c2c(N)nc(NC3C[C@H]4CC[C@@H](C3)N4)nc2n1 (stereo partly shown) [Example 177] | 100 to 3000 | 0.1 to 1 |  | 
COc1ccccc1CN1CCC(Nc2nc(N)c3c(C)cc(C)nc3n2)CC1 [Example 426, N^2-(1-(2-methoxybenzyl)piperidin-4-yl)-5,7-dimethylpyrido[2,3-d]pyrimidine-2,4-diamine] | 100 to 3000 | 1 to 10 |  | 
Nc1nc(N)c2cccnc2n1 [pyrido[2,3-d]pyrimidine-2,4-diamine, reference compound] | 0 to 100 | > 100 |  | not reached
CN1CCC(Nc2nc(N)c3ccc(-c4cccc(C(F)(F)F)c4)nc3n2)CC1 [Example 67] | 100 to 3000 | 1 to 10 |  | 
CNc1nc(NC2C[C@@H]3CCC2N3)nc2nc(C)cc(C)c12 (stereo partly shown) [Example 383] |  | 1 to 10 |  | 
COc1cccc(-c2ccc3c(N)nc(NC4CCN(C)CC4)nc3n2)c1 [Example 100] | 100 to 3000 | 1 to 10 |  | 
Cc1cc(C)c2c(N)nc(NCC3(N(C)C)CCOCC3)nc2n1 [Example 156] |  | 1 to 10 |  | 
Cc1nc2nc(NC3CCN(C)CC3)nc(N)c2c(-c2ccccc2)c1Cl [Example 271] | 0 to 100 | > 31.6 |  | 
Cc1cc(C)c2c(N)nc(NCC(C)(C)N3CCOCC3)nc2n1 [Example 148] | 100 to 3000 | 10 to 100 |  | 
CN1CCC(Nc2nc(N)c3ccc(-c4ccncc4)nc3n2)CC1 [Example 111] |  | 10 to 100 |  | 

SMILES | Emax [%] | EC (100% of 200 uM G418 response) [µM] | pC100% | pC100% response (assayed at a concentration of 300 μM, C100% = concentration giving the same response as 200 μM G418)
CNc1nc(N[C@H]2CNC[C@@H](O)C2)nc2nc(C)cc(C)c12 [Example 610] |  | 1 to 10 |  | 
Cc1ccc(O)c(CN2CCC(Nc3nc(N)c4c(C)cc(C)nc4n3)CC2)c1 [Example 548] | 100 to 3000 | 0.1 to 1 |  | 
Cc1cc(C)c2c(N)nc(N[C@H]3CCNC3)nc2n1 [Example 292] | 100 to 3000 | 1 to 10 |  | 
Cc1cc(C)c2c(N)nc(NCCCNCC(F)(F)F)nc2n1 [Example 185] | 0 to 100 | > 31.6 |  | 
CNc1nc(N[C@@H]2CCCN(C)CC2)nc2nc(C)cc(C)c12 [Example 401] | 100 to 3000 | 1 to 10 |  | 
Cc1nc2nc(NC3CCN(C)CC3)nc(N)c2c(C)c1Br [Example 22, 6-bromo-5,7-dimethyl-N^2-(1-methylpiperidin-4-yl)pyrido[2,3-d]pyrimidine-2,4-diamine] | 100 to 3000 | 1 to 10 |  | 
CNc1nc(NC2CCCN3CCCC23)nc2nc(C)cc(C)c12 (stereo not shown) [Example 598] | 100 to 3000 |  | + (pC100% > 4.0 ≤ 5.0) | 
Cc1cc(C)c2c(N)nc(N[C@@H]3CCNC[C@@H]3O)nc2n1 [Example 573] |  | 1 to 10 |  | 
CNCCNc1nc(N)c2c(C)cc(C)nc2n1 [Example 285] |  | 1 to 10 |  | 
Cc1nc2nc(NC3CCN(Cc4ccncc4O)CC3)nc(N)c2c2c1CCC2 [Example 530] | 100 to 3000 | 0.1 to 1 |  | 
COCCN1CC[C@@H](Nc2nc(N)c3c(C)cc(C)nc3n2)C1 [Example 223, (R)—N^2-(1-(2-methoxyethyl)pyrrolidin-3-yl)-5,7-dimethylpyrido[2,3-d]pyrimidine-2,4-diamine] | 100 to 3000 | 10 to 100 |  | 
Cc1nc2nc(NC3CCN(C)CC3)nc(N)c2c2c1CCC2 [Example 11, 6-methyl-N^3-(1-methylpiperidin-4-yl)-8,9-dihydro-7H-cyclopenta[4,5]pyrido[2,3-d]pyrimidine-1,3-diamine] | 100 to 3000 | 0.1 to 1 |  | 
Cc1cc(C)c2c(N)nc(NC3CCN(Cc4cccc(F)c4)CC3)nc2n1 [Example 466] | 100 to 3000 | 1 to 10 |  | 
CNc1nc(N[C@H]2C3CC[C@@H]2NC3)nc2nc(C)cc(C)c12 [Example 444] | 100 to 3000 | 10 to 100 |  | 
Cc1ccccc1-c1ccc2c(N)nc(NC3CCN(C)CC3)nc2n1 [Example 110] |  | 1 to 10 |  | 
CNc1nc(NC2C3CCC2CN(C(C)C)C3)nc2nc(C)cc(C)c12 (single isomer, unassigned) [Example 435] | 100 to 3000 |  | ++ (pC100% > 5.0 ≤ 6.0) | 
CNc1nc(N[C@H]2CN[C@@H](CO)C2)nc2nc(C)cc(C)c12 [Example 411] |  | 1 to 10 |  | 
Cc1cc(C)c2c(N)nc(NC3CCN(Cc4ccncc4C(F)F)CC3)nc2n1 [Example 533] | 100 to 3000 | 10 to 100 |  | 
